Experimental data: ChEMBL document CHEMBL2390917, “Synthesis and biological evaluation of 2-(5-methyl-4-phenyl-2-oxopyrrolidin-1-yl)-acetamide stereoisomers as novel positive allosteric modulators of sigma-1 receptor” (Bioorg Med Chem, 2013)
The source made the active and inactive calls. The calls are words filed in the database; no cut-off is given here.

Assays:
[1] = target: Nociceptin receptor (Homo sapiens) (UniProt P41146); test: Binding affinity to ORL1 receptor (unknown origin) at 10 uM by radioligand displacement assay relative to control
[2] = target: Muscarinic acetylcholine receptor M3 (Homo sapiens) (UniProt P20309); test: Binding affinity to human muscarinic M3 receptor at 10 uM by radioligand displacement assay relative to control
Sequence of Muscarinic acetylcholine receptor M3 (Homo sapiens) (P20309 whole entry, looked up): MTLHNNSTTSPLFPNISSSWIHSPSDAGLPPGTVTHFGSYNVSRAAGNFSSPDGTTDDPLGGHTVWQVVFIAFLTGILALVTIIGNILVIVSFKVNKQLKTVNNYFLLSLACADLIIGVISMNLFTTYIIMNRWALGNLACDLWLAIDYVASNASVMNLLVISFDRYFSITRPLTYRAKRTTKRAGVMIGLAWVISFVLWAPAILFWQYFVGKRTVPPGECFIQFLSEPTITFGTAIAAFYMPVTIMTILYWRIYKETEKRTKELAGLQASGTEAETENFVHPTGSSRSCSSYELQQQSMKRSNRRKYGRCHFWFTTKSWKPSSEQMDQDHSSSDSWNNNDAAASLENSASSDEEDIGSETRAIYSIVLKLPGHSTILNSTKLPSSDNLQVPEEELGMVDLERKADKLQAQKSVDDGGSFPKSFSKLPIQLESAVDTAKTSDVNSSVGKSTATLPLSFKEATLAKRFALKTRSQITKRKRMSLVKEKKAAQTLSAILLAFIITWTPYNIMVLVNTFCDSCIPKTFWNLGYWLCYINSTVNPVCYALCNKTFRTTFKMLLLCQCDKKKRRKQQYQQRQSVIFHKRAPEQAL

[3] = tested on: Mus musculus; test: Toxicity in ICR mouse assessed as effect on locomotor activity measured moved distance per 4 mins at 100 mg/kg, ip after 120 mins by open field test (reference value: 578 126 cm); format: organism-based; parameters: dose 100 mg/kg, route intraperitoneal; conditions: in vivo
[4] = tested on: Mus musculus; test: Toxicity in ICR mouse assessed as effect on locomotor activity measured moved distance per 4 mins at 10 mg/kg, ip after 60 mins by open field test (reference value: 623 136 cm); format: organism-based; parameters: dose 10 mg/kg, route intraperitoneal; conditions: in vivo
[5] = tested on: Mus musculus; test: Cognitive enhancing effect in ICR mouse assessed as increase in retention latency at 1 mg/kg, ip administered 60 mins prior to testing measured after 24 hrs by passive avoidance test relative to control; format: functional; conditions: route intraperitoneal
[6] = tested on: Mus musculus; test: Toxicity in ICR mouse assessed as effect on locomotor activity measured moved distance per 4 mins at 1 mg/kg, ip after 30 mins by open field test (reference value: 1124 121 cm); format: organism-based; parameters: dose 1 mg/kg, route intraperitoneal; conditions: in vivo
[7] = target: Endothelin receptor type B (Homo sapiens) (UniProt P24530); test: Binding affinity to human ETB receptor at 10 uM by radioligand displacement assay relative to control
Sequence of Endothelin receptor type B (Homo sapiens) (P24530 whole entry): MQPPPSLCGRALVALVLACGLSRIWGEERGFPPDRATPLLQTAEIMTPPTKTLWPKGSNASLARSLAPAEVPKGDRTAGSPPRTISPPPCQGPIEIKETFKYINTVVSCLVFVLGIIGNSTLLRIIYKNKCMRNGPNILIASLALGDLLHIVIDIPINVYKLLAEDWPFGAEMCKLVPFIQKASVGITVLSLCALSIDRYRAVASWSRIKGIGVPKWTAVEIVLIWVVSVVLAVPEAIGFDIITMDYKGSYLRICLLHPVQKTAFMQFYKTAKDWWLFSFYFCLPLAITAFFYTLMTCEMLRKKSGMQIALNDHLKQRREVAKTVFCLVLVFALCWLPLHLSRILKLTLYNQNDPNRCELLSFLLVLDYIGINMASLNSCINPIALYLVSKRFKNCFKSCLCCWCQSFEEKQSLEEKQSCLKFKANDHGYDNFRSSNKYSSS

[8] = tested on: Mus musculus; test: Toxicity in ICR mouse assessed as effect on locomotor activity measured moved distance per 4 mins at 1 mg/kg, ip after 180 mins by open field test (reference value: 436 125 cm); format: organism-based; parameters: dose 1 mg/kg, route intraperitoneal; conditions: in vivo
[9] = target: Gastrin/cholecystokinin type B receptor (Homo sapiens) (UniProt P32239); test: Binding affinity to human CCK2 receptor at 10 uM by radioligand displacement assay relative to control
Sequence of Gastrin/cholecystokinin type B receptor (Homo sapiens) (P32239 whole entry): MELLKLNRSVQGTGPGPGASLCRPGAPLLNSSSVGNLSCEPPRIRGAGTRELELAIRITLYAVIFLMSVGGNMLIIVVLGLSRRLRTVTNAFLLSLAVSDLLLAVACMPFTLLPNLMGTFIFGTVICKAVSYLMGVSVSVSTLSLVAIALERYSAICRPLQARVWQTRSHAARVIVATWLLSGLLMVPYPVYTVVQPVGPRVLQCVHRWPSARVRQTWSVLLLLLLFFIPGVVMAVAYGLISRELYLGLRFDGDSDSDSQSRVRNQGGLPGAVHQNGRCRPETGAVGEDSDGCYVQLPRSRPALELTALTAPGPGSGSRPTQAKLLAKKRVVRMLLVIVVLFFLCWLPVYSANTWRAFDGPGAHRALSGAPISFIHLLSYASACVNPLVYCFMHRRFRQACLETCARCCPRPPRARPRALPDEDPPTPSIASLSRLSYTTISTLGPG

[10] = organism: Homo sapiens; test: Binding affinity to P2X receptor (unknown origin) at 10 uM by radioligand displacement assay relative to control
[11] = target: C-X-C chemokine receptor type 2 (Homo sapiens) (UniProt P25025); test: Binding affinity to human CXCR2 at 10 uM by radioligand displacement assay relative to control
[12] = target: Adenosine receptor A1 (Homo sapiens) (UniProt P30542); test: Binding affinity to human adenosine A1 receptor at 10 uM by radioligand displacement assay relative to control
Sequence of Adenosine receptor A1 (Homo sapiens) (P30542 whole entry): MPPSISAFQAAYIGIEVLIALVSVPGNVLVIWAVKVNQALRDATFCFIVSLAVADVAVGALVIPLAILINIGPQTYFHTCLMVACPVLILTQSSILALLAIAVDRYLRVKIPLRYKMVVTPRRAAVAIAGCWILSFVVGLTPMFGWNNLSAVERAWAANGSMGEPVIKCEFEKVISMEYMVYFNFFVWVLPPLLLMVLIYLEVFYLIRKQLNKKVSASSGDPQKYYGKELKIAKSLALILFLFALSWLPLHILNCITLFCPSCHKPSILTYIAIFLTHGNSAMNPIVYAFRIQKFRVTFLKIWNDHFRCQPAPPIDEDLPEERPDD

[13] = target: Substance-K receptor (Homo sapiens) (UniProt P21452); test: Binding affinity to human NK2 receptor at 10 uM by radioligand displacement assay relative to control
[14] = target: Melatonin receptor type 1A (Homo sapiens) (UniProt P48039); test: Binding affinity to human ML1A receptor at 10 uM by radioligand displacement assay relative to control
[15] = target: Peroxisome proliferator-activated receptor gamma (Homo sapiens) (UniProt P37231); test: Binding affinity to human PPARgamma receptor at 10 uM by radioligand displacement assay relative to control
[16] = target: Sigma non-opioid intracellular receptor 1 (Homo sapiens, UniProt Q99720); test: Binding affinity to sigma 1 receptor (unknown origin) at 10 uM by radioligand displacement assay
[17] = organism: Homo sapiens; test: Binding affinity to peripheral-type BZD receptor (unknown origin) at 10 uM by radioligand displacement assay relative to control
[18] = target: Kappa-type opioid receptor (Homo sapiens) (UniProt P41145); test: Binding affinity to kappa opioid receptor (unknown origin) at 10 uM by radioligand displacement assay relative to control
Sequence of Kappa-type opioid receptor (Homo sapiens) (P41145 whole entry): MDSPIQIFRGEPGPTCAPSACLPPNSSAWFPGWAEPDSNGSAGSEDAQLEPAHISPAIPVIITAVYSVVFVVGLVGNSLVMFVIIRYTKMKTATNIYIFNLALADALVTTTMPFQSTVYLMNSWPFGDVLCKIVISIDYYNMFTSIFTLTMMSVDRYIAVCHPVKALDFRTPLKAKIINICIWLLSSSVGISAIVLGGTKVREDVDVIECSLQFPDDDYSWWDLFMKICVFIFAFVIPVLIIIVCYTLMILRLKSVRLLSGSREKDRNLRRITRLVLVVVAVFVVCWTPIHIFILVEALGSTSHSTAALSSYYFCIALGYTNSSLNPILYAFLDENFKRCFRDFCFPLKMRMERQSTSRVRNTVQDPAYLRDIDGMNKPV

[19] = target: Vasoactive intestinal polypeptide receptor 1 (Homo sapiens) (UniProt P32241); test: Binding affinity to human VPAC1 receptor at 10 uM by radioligand displacement assay relative to control
[20] = target: Mu-type opioid receptor (Homo sapiens) (UniProt P35372); test: Binding affinity to mu opioid receptor (unknown origin) at 10 uM by radioligand displacement assay relative to control
[21] = target: Neuromedin-K receptor (Homo sapiens) (UniProt P29371); test: Binding affinity to human NK3 receptor at 10 uM by radioligand displacement assay relative to control
Sequence of Neuromedin-K receptor (Homo sapiens) (P29371 whole entry): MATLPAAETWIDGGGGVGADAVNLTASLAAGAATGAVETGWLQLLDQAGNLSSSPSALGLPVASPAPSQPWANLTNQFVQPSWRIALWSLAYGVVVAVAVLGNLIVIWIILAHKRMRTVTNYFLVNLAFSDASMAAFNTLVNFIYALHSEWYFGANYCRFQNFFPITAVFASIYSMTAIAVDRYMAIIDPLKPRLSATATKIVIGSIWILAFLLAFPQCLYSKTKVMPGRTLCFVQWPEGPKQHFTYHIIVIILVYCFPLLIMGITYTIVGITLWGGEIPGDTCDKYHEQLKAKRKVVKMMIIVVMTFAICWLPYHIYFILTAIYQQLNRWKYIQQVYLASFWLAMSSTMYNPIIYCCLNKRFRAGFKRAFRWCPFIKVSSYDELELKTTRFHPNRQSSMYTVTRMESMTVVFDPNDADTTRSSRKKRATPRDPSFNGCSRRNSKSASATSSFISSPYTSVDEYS

[22] = tested on: Mus musculus; test: Toxicity in ip dosed ICR mouse assessed as effect on motor performance measured within 30 secs by chimney test; format: organism-based; conditions: in vivo, 0.5 min
[23] = organism: Homo sapiens; test: Binding affinity to GABA-gated chloride channel (unknown origin) at 10 uM by radioligand displacement assay relative to control
[24] = target: Cannabinoid receptor 1 (Homo sapiens) (UniProt P21554); test: Binding affinity to human CB1 receptor at 10 uM by radioligand displacement assay relative to control
[25] = target: Sodium-dependent dopamine transporter (Homo sapiens) (UniProt Q01959); test: Binding affinity to human dopamine transporter at 10 uM by radioligand displacement assay relative to control
[26] = target: D(1A) dopamine receptor (Homo sapiens) (UniProt P21728); test: Binding affinity to human dopamine D1 receptor at 10 uM by radioligand displacement assay relative to control
Sequence of D(1A) dopamine receptor (Homo sapiens) (P21728 whole entry): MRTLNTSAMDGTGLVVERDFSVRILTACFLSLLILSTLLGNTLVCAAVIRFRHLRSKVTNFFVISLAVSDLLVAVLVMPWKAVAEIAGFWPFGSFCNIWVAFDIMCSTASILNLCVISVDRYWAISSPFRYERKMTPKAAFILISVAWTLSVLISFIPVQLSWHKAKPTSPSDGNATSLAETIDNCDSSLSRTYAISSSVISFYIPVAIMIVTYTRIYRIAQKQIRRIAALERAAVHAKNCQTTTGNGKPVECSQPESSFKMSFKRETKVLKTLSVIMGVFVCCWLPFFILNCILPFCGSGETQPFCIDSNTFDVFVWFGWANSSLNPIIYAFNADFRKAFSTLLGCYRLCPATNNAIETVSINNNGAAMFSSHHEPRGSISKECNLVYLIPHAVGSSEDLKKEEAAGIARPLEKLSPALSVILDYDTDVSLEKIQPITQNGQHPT

[27] = target: Galanin receptor type 2 (Homo sapiens) (UniProt O43603); test: Binding affinity to human GAL2 receptor at 10 uM by radioligand displacement assay relative to control
Sequence of Galanin receptor type 2 (Homo sapiens) (O43603 whole entry): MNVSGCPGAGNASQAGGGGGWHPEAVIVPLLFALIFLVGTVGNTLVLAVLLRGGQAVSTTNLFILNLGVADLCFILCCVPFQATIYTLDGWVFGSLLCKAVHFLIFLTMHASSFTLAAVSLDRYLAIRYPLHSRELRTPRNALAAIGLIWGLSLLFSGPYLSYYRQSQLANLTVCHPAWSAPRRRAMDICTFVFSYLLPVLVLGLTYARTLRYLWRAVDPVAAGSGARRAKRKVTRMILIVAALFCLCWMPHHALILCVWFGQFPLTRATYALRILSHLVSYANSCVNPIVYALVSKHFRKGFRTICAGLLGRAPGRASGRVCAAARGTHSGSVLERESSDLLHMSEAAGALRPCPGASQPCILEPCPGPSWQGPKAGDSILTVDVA

[28] = tested on: Mus musculus; test: Antiamnesic activity in ICR mouse scopolamine-induced memory impairment model assessed as increase in retention latency at 10 mg/kg, ip administered 60 mins prior to scopolamine challenge measured after 40 mins by passive avoidance test relative to scopolamine-treated control; format: functional; conditions: route intraperitoneal
[29] = target: Galanin receptor type 1 (Homo sapiens) (UniProt P47211); test: Binding affinity to human GAL1 receptor at 10 uM by radioligand displacement assay relative to control
Sequence of Galanin receptor type 1 (Homo sapiens) (P47211 whole entry): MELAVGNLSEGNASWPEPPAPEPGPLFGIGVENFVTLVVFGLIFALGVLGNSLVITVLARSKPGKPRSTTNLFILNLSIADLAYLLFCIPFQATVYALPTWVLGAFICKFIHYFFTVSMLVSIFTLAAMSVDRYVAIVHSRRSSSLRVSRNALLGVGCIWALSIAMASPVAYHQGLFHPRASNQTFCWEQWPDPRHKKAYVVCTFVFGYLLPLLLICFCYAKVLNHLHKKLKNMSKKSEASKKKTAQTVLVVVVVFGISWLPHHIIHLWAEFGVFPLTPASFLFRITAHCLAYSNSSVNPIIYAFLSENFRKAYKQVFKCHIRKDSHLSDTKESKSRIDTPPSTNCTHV

[30] = target: D(2) dopamine receptor (Homo sapiens) (UniProt P14416); test: Binding affinity to human dopamine D2S receptor at 10 uM by radioligand displacement assay relative to control
Sequence of D(2) dopamine receptor (Homo sapiens) (P14416 whole entry): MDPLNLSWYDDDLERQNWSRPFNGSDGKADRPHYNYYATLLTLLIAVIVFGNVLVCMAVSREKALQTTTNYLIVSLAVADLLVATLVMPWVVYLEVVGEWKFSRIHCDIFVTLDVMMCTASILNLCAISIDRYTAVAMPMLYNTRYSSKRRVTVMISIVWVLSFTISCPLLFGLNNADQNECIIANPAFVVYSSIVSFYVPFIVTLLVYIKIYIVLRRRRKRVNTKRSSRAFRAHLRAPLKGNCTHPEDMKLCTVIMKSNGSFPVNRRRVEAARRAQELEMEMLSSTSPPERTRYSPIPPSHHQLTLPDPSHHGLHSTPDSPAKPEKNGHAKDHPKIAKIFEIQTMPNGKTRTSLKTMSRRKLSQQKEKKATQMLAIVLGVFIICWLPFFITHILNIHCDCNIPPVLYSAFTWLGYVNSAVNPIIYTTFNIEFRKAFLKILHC

[31] = target: 5-hydroxytryptamine receptor 2C (Homo sapiens) (UniProt P28335); test: Binding affinity to human 5-HT2C receptor at 10 uM by radioligand displacement assay relative to control
[32] = target: Calcitonin gene-related peptide type 1 receptor (Homo sapiens) (UniProt Q16602); test: Binding affinity to human CGRP receptor at 10 uM by radioligand displacement assay relative to control
[33] = tested on: Mus musculus; test: Toxicity in ICR mouse assessed as effect on locomotor activity measured moved distance per 4 mins at 1 mg/kg, ip after 240 mins by open field test (reference value: 398 70 cm); format: organism-based; parameters: dose 1 mg/kg, route intraperitoneal; conditions: in vivo
[34] = tested on: Mus musculus; test: Toxicity in ICR mouse assessed as effect on locomotor activity measured moved distance per 4 mins at 100 mg/kg, ip after 60 mins by open field test (reference value: 623 136 cm); format: organism-based; parameters: dose 100 mg/kg, route intraperitoneal; conditions: in vivo
[35] = target: Alpha-2A adrenergic receptor (Homo sapiens) (UniProt P08913); test: Binding affinity to adrenergic alpha2 receptor (unknown origin) at 10 uM by radioligand displacement assay relative to control
Sequence of Alpha-2A adrenergic receptor (Homo sapiens) (P08913 whole entry): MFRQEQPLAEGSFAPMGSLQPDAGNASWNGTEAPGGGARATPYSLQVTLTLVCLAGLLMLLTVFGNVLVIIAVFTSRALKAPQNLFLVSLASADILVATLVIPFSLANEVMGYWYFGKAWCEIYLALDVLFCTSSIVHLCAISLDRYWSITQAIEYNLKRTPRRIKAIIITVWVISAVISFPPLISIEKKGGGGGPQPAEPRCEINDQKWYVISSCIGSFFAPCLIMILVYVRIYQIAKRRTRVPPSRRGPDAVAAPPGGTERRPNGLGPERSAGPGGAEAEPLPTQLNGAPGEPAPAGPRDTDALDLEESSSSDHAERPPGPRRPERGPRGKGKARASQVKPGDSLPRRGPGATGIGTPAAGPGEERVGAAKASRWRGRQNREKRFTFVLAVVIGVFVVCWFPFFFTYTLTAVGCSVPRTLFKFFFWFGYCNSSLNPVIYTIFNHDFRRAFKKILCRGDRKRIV

[36] = organism: Homo sapiens; test: Binding affinity to sodium channel site 2 (unknown origin) at 10 uM by radioligand displacement assay relative to control
[37] = target: B2 bradykinin receptor (Homo sapiens) (UniProt P30411); test: Binding affinity to human bradykinin B2 receptor at 10 uM by radioligand displacement assay relative to control

SMILES: C[C@H]1[C@@H](c2ccccc2)CC(=O)N1CC(N)=O
- inhibition [1]: 4%
- inhibition [2]: -7%
- Activity [3]: 470 cm
- Activity [4]: 640 cm
- Activity [5]: 194%
- Activity [6]: 1402 cm
- inhibition [7]: 2%
- Activity [8]: 559 cm
- inhibition [9]: 8%
- inhibition [10]: 6%
- inhibition [11]: 2%
- inhibition [12]: 2%
- inhibition [13]: -3%
- inhibition [14]: -6%
- inhibition [15]: -9%
- Activity [16]: inactive
- inhibition [17]: 3%
- inhibition [18]: -5%
- inhibition [19]: -2%
- inhibition [20]: -7%
- inhibition [21]: -7%
- ED50 [22]: 349 mg/kg
- inhibition [23]: -3%
- inhibition [24]: -3%
- inhibition [25]: 4%
- inhibition [26]: -6%
- inhibition [27]: -4%
- Activity [28]: 209%
- inhibition [29]: -2%
- inhibition [30]: 5%
- inhibition [31]: -2%
- inhibition [32]: 1%
- Activity [33]: 626 cm
- Activity [34]: 648 cm
- inhibition [35]: -4%
- inhibition [36]: 5%
- inhibition [37]: 3%
